Marks after values point to notes of the source that are not given here.
Columns and labels:
human COX-2 = target: T1, human COX-2 (Homo sapiens, UniProt P35354); experiment: Determination of COX-2 inhibitory activity (microsome fraction, chemiluminescence); type: biochemical; conditions: microsome fraction 20 μg, arachidonic acid, 37° C. 25 minutes preincubation; read-out: Repression rate IC50 (μM) COX-2
T1 construct: made in house; host or cells: Sf-21 insect cells (recombinant baculovirus BAC-COX2, pFASTBAC1); microsome fraction
T1 sequence (P35354 18-604): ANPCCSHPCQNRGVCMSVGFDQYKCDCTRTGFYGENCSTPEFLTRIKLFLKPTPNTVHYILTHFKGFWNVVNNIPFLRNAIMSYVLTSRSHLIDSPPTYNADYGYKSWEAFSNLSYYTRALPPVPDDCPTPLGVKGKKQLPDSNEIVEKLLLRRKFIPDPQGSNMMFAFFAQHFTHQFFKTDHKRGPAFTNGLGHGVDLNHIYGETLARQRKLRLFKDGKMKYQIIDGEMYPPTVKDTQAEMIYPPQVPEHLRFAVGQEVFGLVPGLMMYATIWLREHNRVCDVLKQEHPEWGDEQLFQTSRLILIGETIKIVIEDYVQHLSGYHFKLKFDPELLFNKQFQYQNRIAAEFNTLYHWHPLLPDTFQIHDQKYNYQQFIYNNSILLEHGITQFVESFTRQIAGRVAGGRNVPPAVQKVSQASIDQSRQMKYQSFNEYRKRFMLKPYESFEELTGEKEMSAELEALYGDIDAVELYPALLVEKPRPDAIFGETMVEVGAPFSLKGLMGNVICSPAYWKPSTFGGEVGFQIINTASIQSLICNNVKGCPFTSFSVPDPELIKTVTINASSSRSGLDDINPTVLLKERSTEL
Procedure: A 1.8 kb DNA fragment containing human COX-2 cDNA (Proc. Natl. Acad. Sci. U.S.A., vol. 89 (16), p. 7384-7388 (1992)) prepared by the PCR method was inserted into plasmid pFASTBAC1 (CIBCOBRAL) to obtain a plasmid pFBCOX2.
Using the plasmid pFBCOX2 and BAC-TO-BAC Baculovirus Expression System (GIBCOBRAL), a virus stock BAC-COX2 of the recombinant baculovirus was prepared.
Sf-21 cells were inoculated in 125 mL of LSf-900 II SFM medium (GIBCOBRAL) at a concentration of 1×10^6 cells/mL, and the medium was incubated at 27° C. for 24 hours. 0.75 mL of the virus stock BAC-COX2 of the recombinant baculovirus was added thereto, and was incubated further for 72 hours. The cells were separated from the medium by centrifugation (3000 rpm, 10 min), and washed with PBS twice. The cells were suspended in 10 mL of a Lysis buffer (0.1M Tris-HCl (pH 7.4), 5 mM EDTA), and were treated with a homogenizer (POLYTRON), three times at 20000 rpm for 20 seconds so that the cells were crushed. The supernatant thus obtained after centrifugation (2000 rpm, 10 minutes) was further centrifuged (40000 rpm, 45 minutes) to obtain a precipitate, which was resuspended in a Lysis buffer (0.1M Tris-HCl (pH 7.4), 5 mM EDTA), and the suspension was stored at −80° C.
Determination of COX-1 and COX-2 Inhibitory Activities
To a mixture of 20 μL of a reaction buffer previously concentrated 10 times (1M Tris-HCl (pH8.0), 50 mM EDTA, 1.0% Tween 20, 50 mM luminol, 100 μM hematin), 20 μL of the microsome fractions (COX-1: 40 μg, COX-2: 20 μg), and 55 μL of distilled water, a sample compound dissolved in DMF (5 μL) was added, and the mixture was left at 37° C. for 25 minutes. The reaction was started by the addition of 20 μM arachidonic acid (100 μL), and chemiluminescence amount during the 10-second period after the addition of arachidonic acid was determined by the use of Lumistar (BMG Lab technologies, GmbH). The inhibition rate was calculated, regarding that the enzyme activity when DMF ([…]) was added was 100%, and the enzyme activity when 4 mM flurbiprofen (5 μL) was added was 0%.

yeast-induced pyrexia = experiment: Antipyretic activity in yeast-induced pyrexia; type: in vivo, SD rats; conditions: 10 mg/kg orally; maximum difference in body temperature vs control over 6 hours
Outline: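 Male SD rats, 7 weeks old (n=6), febrile 18 h after s.c. 15% yeast in saline (10 mL/kg), fasted; compound given orally at 5 mL/kg, vehicle to controls. Rectal temperature by thermistor hourly for 6 h; Δ (° C.) is maximum temperature difference versus control.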

[1] = tested on: mucosa of small intestine; experiment: Disorder of mucosa of small intestine; type: in vivo, SD rats; conditions: 300 mg/kg orally, freely fed rats, 6 hours after dosing
Procedure: Disorder of Mucosa of Small Intestine Male SD origin male-rats (7 weeks old, CLEA Japan) were used. To the rats freely fed, samples were administered orally (5 mL/kg, b.w.). After 5.5 hours from the administration, Evan's Blue (0.5% Evan's Blue/saline) was injected (1 mL/rat) intravenously under no anesthesia. After 30 minutes from the shot, the intestine was removed by celiotomy and the area thereof facing mesentery was cut open. After removal of intestinal content, the spots in the intestine dyed by Evan's Blue were measured under a stereomicroscope, and the total length (mm) of the spots was determined by a counter and recorded.

gastric mucosa = experiment: Disorder of gastric mucosa; type: in vivo, SD rats; conditions: stomach, 300 mg/kg orally, fasted rats, 6 hours after dosing
Procedure: Disorder of Gastric Mucosa
Male SD origin male-rats (7 weeks old, CLEA Japan) were used. After 24 hours from the termination of food supply, samples were orally administered (5 mL/kg, b.w.). After 5.5 hours, Evan's Blue (0.5% Evan's Blue/saline) was injected intravenously (1 mL/rat) under no anesthesia. After 30 minutes from the shot, the stomach (with esophagus and duodenum of 1.5 to 2 cm length) was removed by celiotomy, and subsequently, the esophagus terminal was closed with a clip, and a 8 mL of 1% formalin solution was injected into the stomach through the duodenum, which was also closed with a clip after the injection. The stomach was left contacting with the 1% formalin solution for more than 10 minutes, and subsequently cut open from duodenum along the greater curvature of stomach. The stomach was washed and spread on a filter paper, and the length of each of the spots dyed by Evan's Blue (hemorrhagic portion: mucosal ablation to ulcer) was measured under a stereomicroscope, and the total length (mm) was calculated by a counter and recorded.

Row | SMILES | IC50 (human COX-2) [µM] | Total length of dyed spots (mm) [1] | Δ (° C.) Dosage 10 mg/kg (yeast-induced pyrexia) | Total length of dyed spots (mm) (gastric mucosa)
1 | CCCOc1c2ccccc2nc2c1c(C)nn2-c1ccccn1 [Example 2-17, 3-Methyl-4-propoxy-1-(2-pyridinyl)-1H-pyrazolo[3,4-b]quinoline] | 49.2 | 0 (300 mg/kg) mm | 1.5** ° C. | –
2 | Cc1nn(-c2ccccn2)c2[nH]c3cccc(F)c3c(=O)c12.Cl [Example 2-79, 5-Fluoro-3-methyl-1-(2-pyridinyl)-1,9-dihydro-4H-pyrazolo[3,4-b]quinolin-4-one hydrochloride] | 3.7 | 0 (300 mg/kg) mm | 1.4** ° C. | 0 (300 mg/kg) mm
3 | O=c1c2ccccc2[nH]c2c1cnn2-c1ccccn1 [Example 2-159, 1-(2-Pyridinyl)-1,9-dihydro-4H-pyrazolo[3,4-b]quinolin-4-one] | 1.37 | 0 (300 mg/kg) mm | 1.8** ° C. | 0 (300 mg/kg) mm

The remaining compounds from weak to strong by IC50 (human COX-2), led by results:

Row | IC50 (human COX-2) [µM] | Total length of dyed spots (mm) [1] | SMILES | Δ (° C.) Dosage 10 mg/kg (yeast-induced pyrexia) | Total length of dyed spots (mm) (gastric mucosa)
4 | 86 | – | Cc1nn(-c2ccccn2)c2nc3ccccc3c(OC3CCCC3)c12 [Example 2-21, 4-Cyclopentyloxy-3-methyl-1-(2-pyridinyl)-1H-pyrazolo[3,4-b]quinoline] | 1.8** ° C. | –
5 | 65.1 | – | CCCNc1c2ccccc2nc2c1c(C)nn2-c1ccccn1 [Example 2-6, N-[3-Methyl-1-(2-pyridinyl)-1H-pyrazolo[3,4-b]quinolin-4-yl]-N-propylamine] | 0.8** ° C. | –
